Results from patent publication US5045302A, “Ligands and cationic complexes thereof with technetium-99m” (priority 1988, dated 1991).

Experiment: Rat biodistribution of Tc-99m complexes

Compound | Blood (2 min p.i.) | Heart (2 min p.i.) | Heart/Blood Counts/Gram Ratio (2 min p.i.) | Heart/Liver Counts/Gram Ratio (2 min p.i.) | Liver (2 min p.i.) | Blood (60 min p.i.) | Heart (60 min p.i.) | Heart/Blood Counts/Gram Ratio (60 min p.i.) | Heart/Liver Counts/Gram Ratio (60 min p.i.) | Liver (60 min p.i.)
CCOCP(CCCP(COCC)COCC)COCC [Compound 33] | 17.9 % Injected dose/organ | 0.50 % Injected dose/organ | 0.43 | 0.16 | 39.4 % Injected dose/organ | 3.20 % Injected dose/organ | 0.29 % Injected dose/organ | 1.3 | 0.29 | 11.4 % Injected dose/organ
CCOCCP(CCOC)CCP(CCOC)CCOCC (centres unmarked) [Compound 28] | 9.0 % Injected dose/organ | 0.82 % Injected dose/organ | 1.62 | 1.28 | 11.0 % Injected dose/organ | 0.73 % Injected dose/organ | 0.69 % Injected dose/organ | 15.5 | 3.93 | 2.94 % Injected dose/organ
COC(C)CCP(CCC(C)OC)CCP(CCC(C)OC)CCC(C)OC (centres unmarked) [Compound 15] | 12.2 % Injected dose/organ | 0.62 % Injected dose/organ | 0.70 | 1.01 | 8.22 % Injected dose/organ | 0.67 % Injected dose/organ | 0.51 % Injected dose/organ | 9.4 | 2.48 | 2.24 % Injected dose/organ
CCC(CP(CCP(CC(CC)OC)CC(CC)OC)CC(CC)OC)OC (centres unmarked) [Compound 12] | 11.7 % Injected dose/organ | 0.70 % Injected dose/organ | 1.04 | 0.39 | 25.2 % Injected dose/organ | 1.63 % Injected dose/organ | 0.48 % Injected dose/organ | 4.7 | 0.63 | 9.72 % Injected dose/organ
FC(F)(F)COCCCP(CCCOCC(F)(F)F)CCP(CCCOCC(F)(F)F)CCCOCC(F)(F)F [Compound 10] | 40.5 % Injected dose/organ | 0.43 % Injected dose/organ | 0.17 | 0.16 | 35.2 % Injected dose/organ | 7.59 % Injected dose/organ | 0.14 % Injected dose/organ | 0.3 | 0.04 | 48.8 % Injected dose/organ
C1COC(CP(CCCP(CC2CCCO2)CC2CCCO2)CC2CCCO2)C1 (centres unmarked) [Compound 35] | 10.5 % Injected dose/organ | 0.59 % Injected dose/organ | 0.88 | 0.28 | 28.2 % Injected dose/organ | 1.44 % Injected dose/organ | 0.32 % Injected dose/organ | 3.8 | 0.46 | 10.7 % Injected dose/organ
CCOCCP(CCOCC)c1ccccc1P(CCOCC)CCOCC [Compound 37] | 12.4 % Injected dose/organ | 0.82 % Injected dose/organ | 0.99 | 0.35 | 29.7 % Injected dose/organ | 3.25 % Injected dose/organ | 0.54 % Injected dose/organ | 2.62 | 0.63 | 12.0 % Injected dose/organ
C1CC(CP(CCP(CC2CCOCC2)CC2CCOCC2)CC2CCOCC2)CCO1 [Compound 25] | 18.10 % Injected dose/organ | 0.40 % Injected dose/organ | 0.34 | 0.94 | 5.74 % Injected dose/organ | 1.51 % Injected dose/organ | 0.04 % Injected dose/organ | 0.41 | 0.34 | 1.60 % Injected dose/organ
CCOCCOCCP(CCOCCOCC)CCP(CCOCCOCC)CCOCCOCC [Compound 8] | 11.0 % Injected dose/organ | 0.54 % Injected dose/organ | 0.72 | 0.41 | 19.0 % Injected dose/organ | 1.69 % Injected dose/organ | 0.42 % Injected dose/organ | 4.0 | 0.46 | 12.0 % Injected dose/organ
CCOCCCP(CCOC)CCP(CCCOCC)CCOC (centres unmarked) [Compound 30] | 9.52 % Injected dose/organ | 0.73 % Injected dose/organ | 1.14 | 1.28 | 7.69 % Injected dose/organ | 0.34 % Injected dose/organ | 0.70 % Injected dose/organ | 27.4 | 4.24 | 1.89 % Injected dose/organ
COC(C)CP(CCP(CC(C)OC)CC(C)OC)CC(C)OC (centres unmarked) [Compound 11] | 9.45 % Injected dose/organ | 0.31 % Injected dose/organ | 1.27 | 0.57 | 20.3 % Injected dose/organ | 1.93 % Injected dose/organ | 0.62 % Injected dose/organ | 5.70 | 0.75 | 12.0 % Injected dose/organ
CCOCC(COCC)CP(CCP(CC(COCC)COCC)CC(COCC)COCC)CC(COCC)COCC [Compound 18] | 24.2 % Injected dose/organ | 0.58 % Injected dose/organ | 0.37 | 0.24 | 35.1 % Injected dose/organ | 5.78 % Injected dose/organ | 0.41 % Injected dose/organ | 1.0 | 0.14 | 36.0 % Injected dose/organ
COCCP(CCOC)CCP(CCOC)CCOC [Compound 2] | 19.85 % Injected dose/organ | 0.66 % Injected dose/organ | 0.44 | 1.57 | 5.90 % Injected dose/organ | 0.54 % Injected dose/organ | 0.17 % Injected dose/organ | 5.4 | 1.17 | 2.37 % Injected dose/organ
CCOC(C)CP(CCP(CC(C)OCC)CC(C)OCC)CC(C)OCC (centres unmarked) [Compound 13] | 7.17 % Injected dose/organ | 1.21 % Injected dose/organ | 2.54 | 0.70 | 22.0 % Injected dose/organ | 1.77 % Injected dose/organ | 0.96 % Injected dose/organ | 7.9 | 1.25 | 10.6 % Injected dose/organ
CCOCCP(CCOCC)CCP(CCOCC)CCOCC [Compound 1, (EtOC2 H4)2 P--C2 H4 --P(C2 H4 OEt)2] | 2.25 % Injected dose/organ | 1.66 % Injected dose/organ | 10.5 | 1.52 | 14.1 % Injected dose/organ | 0.28 % Injected dose/organ | 1.68 % Injected dose/organ | 86.4 | 14.4 | 1.62 % Injected dose/organ
CCCOCCP(CCOC)CCP(CCOC)CCOCCC (centres unmarked) [Compound 29] | 8.75 % Injected dose/organ | 1.23 % Injected dose/organ | 2.26 | 0.95 | 18.6 % Injected dose/organ | 1.64 % Injected dose/organ | 1.15 % Injected dose/organ | 11.5 | 1.40 | 11.5 % Injected dose/organ
COCC(C)CP(CCP(CC(C)COC)CC(C)COC)CC(C)COC (centres unmarked) [Compound 14] | 15.4 % Injected dose/organ | 0.41 % Injected dose/organ | 0.41 | 0.98 | 5.80 % Injected dose/organ | 1.02 % Injected dose/organ | 0.05 % Injected dose/organ | 0.7 | 0.39 | 1.54 % Injected dose/organ
